Test results as given in patent US7300944B2, “Pyrazolo[3,4-b]pyridin-6-ones as GSK-3 inhibitors” (Pfizer Inc., priority 2003, dated 2007).

Target: GSK-3 (Homo sapiens, UniProt P49841)
Assay: GSK-3 inhibition, cell-free 33P-ATP peptide substrate SPA assay
Format: biochemical
Conditions: read-out: inhibitory activity against GSK-3, expressed as IC50
Procedure: The specific activity of a compound, stereoisomer, or prodrug of formula (I) in inhibiting GSK-3 can be determined in both cell-free and cell-based assays, both of which have been previously described in the relevant art. See, for example, U.S. Pat. Nos. 6,417,185 and 6,489,344, the disclosures of which are incorporated herein by reference in their entirety.
A cell-free assay can be generally carried out by incubating GSK-3 with a peptide substrate, radiolabeled ATP (e.g., for example, γ^33P- or γ^32P-ATP, both of which are available from Amersham; Arlington Heights, Ill.), magnesium ions, and the compound to be assayed. […] The amount of γ^33P or […] remaining in each well after washing is then quantified to determine the amount of radiolabeled phosphate incorporated into the peptide substrate. […]
Another example of a GSK-3 assay, similar to the one described hereinabove, is as follows: enzyme activities are assayed as the incorporation of ^33P from gamma phosphate of ^33P-ATP (Amersham; Arlington Heights, Ill.; catalog #AH-9968) into biotinylated peptide substrate PKTP-KKAKKL. […] The final concentration of ATP is 0.5 μM (final specific radioactivity of […]), and the final concentration of substrate is 0.75 μM. […] Radioactivity associated with the beads is then quantified by scintillation counting. […]

Sequence of GSK-3 (P49841 whole entry): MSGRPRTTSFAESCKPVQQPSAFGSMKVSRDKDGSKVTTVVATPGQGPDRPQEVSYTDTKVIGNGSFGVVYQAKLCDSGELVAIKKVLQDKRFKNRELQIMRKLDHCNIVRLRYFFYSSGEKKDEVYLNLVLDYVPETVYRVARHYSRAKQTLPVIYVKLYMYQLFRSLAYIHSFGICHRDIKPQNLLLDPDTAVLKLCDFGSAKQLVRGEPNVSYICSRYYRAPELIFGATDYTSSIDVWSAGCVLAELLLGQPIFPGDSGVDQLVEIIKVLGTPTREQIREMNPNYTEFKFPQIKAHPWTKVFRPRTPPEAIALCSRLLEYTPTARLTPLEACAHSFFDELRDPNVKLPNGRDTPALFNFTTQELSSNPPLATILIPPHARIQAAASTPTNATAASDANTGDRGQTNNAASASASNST

## COc1nccc(C2CC(=O)Nc3n[nH]c(C4CCC4)c32)n1 (stereo not shown) [Example 45, 3-Cyclobutyl-4-(2-methoxy-pyrimidin-4-yl)-2,4,5,7-tetrahydro-pyrazolo[3,4-b]pyridin-6-one]
  IC50: 6.5 nM
